pIC50: −log10 of the molar value.
What was measured:
Format in all cases: biochemical
[1] = target: TYK2 (Homo sapiens (Human), UniProt P29597); experiment: JAK Caliper Enzyme Assay at 1 mM ATP, TYK2
In short: (§1)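 Recombinant human kinase domains phosphorylate a fluorescent synthetic peptide at 1 mM ATP and room temperature, with enzyme level and time tuned to 20–30% conversion before an EDTA stop. Microfluidic mobility-shift separation gives percent product from peak heights. Percent effect against plate controls (DMSO baseline) is plotted versus compound concentration.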

[2] = target: JAK1 (Homo sapiens (Human), UniProt P23458); experiment: JAK Caliper Enzyme Assay at 1 mM ATP, JAK1
Sequence of JAK1 (P23458 875-1153): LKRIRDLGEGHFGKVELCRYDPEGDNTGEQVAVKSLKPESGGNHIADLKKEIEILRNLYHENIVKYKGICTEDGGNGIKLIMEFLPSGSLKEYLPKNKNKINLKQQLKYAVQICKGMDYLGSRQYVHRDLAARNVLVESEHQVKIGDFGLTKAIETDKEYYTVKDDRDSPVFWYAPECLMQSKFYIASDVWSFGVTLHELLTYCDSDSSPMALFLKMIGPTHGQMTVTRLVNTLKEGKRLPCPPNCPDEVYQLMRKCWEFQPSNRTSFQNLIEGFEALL
In short: (§2)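 Recombinant human kinase domains phosphorylate a fluorescent synthetic peptide at 1 mM ATP, room temperature, with enzyme and time tuned for 20-30% conversion; EDTA-stopped. Product/substrate separated by microfluidic mobility shift; percent effect versus DMSO and positive controls fitted to IC50 (nM).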

[3] = target: JAK2 (Homo sapiens (Human), UniProt O60674); experiment: JAK Caliper Enzyme Assay at 1 mM ATP, JAK2
Sequence of JAK2 (O60674 849-1124): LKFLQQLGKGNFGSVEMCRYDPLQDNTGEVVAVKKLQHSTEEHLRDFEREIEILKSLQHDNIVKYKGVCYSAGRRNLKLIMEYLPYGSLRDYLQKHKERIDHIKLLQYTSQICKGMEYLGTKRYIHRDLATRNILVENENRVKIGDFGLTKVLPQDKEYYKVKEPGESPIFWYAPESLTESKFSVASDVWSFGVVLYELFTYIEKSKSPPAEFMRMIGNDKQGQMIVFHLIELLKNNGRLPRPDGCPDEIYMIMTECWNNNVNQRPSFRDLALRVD
In short: as §1

[4] = target: JAK3 (Homo sapiens (Human), UniProt P52333); experiment: JAK Caliper Enzyme Assay at 1 mM ATP, JAK3
Sequence of JAK3 (P52333 822-1111): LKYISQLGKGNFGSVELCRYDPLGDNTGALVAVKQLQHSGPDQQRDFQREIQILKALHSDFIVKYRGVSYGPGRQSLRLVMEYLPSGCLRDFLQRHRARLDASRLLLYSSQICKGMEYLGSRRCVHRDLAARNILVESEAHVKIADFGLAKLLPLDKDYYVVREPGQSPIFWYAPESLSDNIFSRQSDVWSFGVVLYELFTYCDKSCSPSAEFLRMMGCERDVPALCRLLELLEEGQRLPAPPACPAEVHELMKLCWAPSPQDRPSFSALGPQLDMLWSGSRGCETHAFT
In short: as §2

Sequence of TYK2 (P29597 897-1176): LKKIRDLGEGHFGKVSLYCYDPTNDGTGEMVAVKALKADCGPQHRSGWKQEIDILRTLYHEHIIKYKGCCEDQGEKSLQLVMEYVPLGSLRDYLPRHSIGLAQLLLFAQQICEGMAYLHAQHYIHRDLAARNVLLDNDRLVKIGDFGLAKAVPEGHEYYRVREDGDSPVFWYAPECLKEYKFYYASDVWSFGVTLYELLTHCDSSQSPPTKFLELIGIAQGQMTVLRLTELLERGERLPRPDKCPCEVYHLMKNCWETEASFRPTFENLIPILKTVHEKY

SMILES	pIC50 [1]	pIC50 [2]	pIC50 [3]	pIC50 [4]
N#CC[C@]1(n2ccc(-c3nc(-c4ccnc(C(N)=O)c4)cc4ncccc34)n2)C[C@H](C#N)C1 [Example 216, 4-(5-{1-[cis-3-cyano-1-(cyanomethyl)cyclobutyl]-1H-pyrazol-3-yl}-1,6-naphthyridin-7-yl)pyridine-2-carboxamide]	7.44	6.33	6.93	< 5.00
Cc1ncc(-c2cc3ncccc3c(-c3ccn(C4(CC#N)CN(S(C)(=O)=O)C4)n3)n2)cc1N [Example 217, [3-{3-[7-(5-amino-6-methylpyridin-3-yl)-1,6-naphthyridin-5-yl]-1H-pyrazol-1-yl}-1-(methylsulfonyl)azetidin-3-yl]acetonitrile]	6.72	5.03	5.79	< 5.00
Cc1ccc(-c2cc3ncccc3c(-c3ccn(C4(CC#N)CN(S(C)(=O)=O)C4)n3)n2)c(N)n1 [Example 218, [3-{3-[7-(2-amino-6-methylpyridin-3-yl)-1,6-naphthyridin-5-yl]-1H-pyrazol-1-yl}-1-(methylsulfonyl)azetidin-3-yl]acetonitrile]	7.42	5.57	6.25	< 5.00
Cc1cc(-c2cc3ncccc3c(-c3ccn(C4(CC#N)CN(S(C)(=O)=O)C4)n3)n2)cnc1N [Example 219, [3-{3-[7-(6-amino-5-methylpyridin-3-yl)-1,6-naphthyridin-5-yl]-1H-pyrazol-1-yl}-1-(methylsulfonyl)azetidin-3-yl]acetonitrile]	6.31	5.19	5.76	< 5.00
Cc1cc(-c2cc3ncccc3c(-c3ccn([C@]4(CC#N)C[C@@H](C#N)C4)n3)n2)cc(N)n1 [Example 220, trans-3-{3-[7-(2-amino-6-methylpyridin-4-yl)-1,6-naphthyridin-5-yl]-1H-pyrazol-1-yl}-3-(cyanomethyl)cyclobutanecarbonitrile]	7.04	5.67	6.11	< 5.00
Cc1cc(-c2cc3ncccc3c(-c3ccn([C@]4(CC#N)C[C@H](C#N)C4)n3)n2)cc(N)n1 [Example 221, cis-3-{3-[7-(2-amino-6-methylpyridin-4-yl)-1,6-naphthyridin-5-yl]-1H-pyrazol-1-yl}-3-(cyanomethyl)cyclobutanecarbonitrile]	7.68	6.64	7.03	5.18
Cc1ncc(-c2cc3ncccc3c(-c3ccn(C4(CC#N)CN(S(C)(=O)=O)C4)n3)n2)cc1O [Example 222, [3-{3-[7-(5-hydroxy-6-methylpyridin-3-yl)-1,6-naphthyridin-5-yl]-1H-pyrazol-1-yl}-1-(methylsulfonyl)azetidin-3-yl]acetonitrile]	7.24	< 5.00	5.89	< 5.00
N#CCC1(n2ccc(-c3nc(-c4ccc(O)c(C(N)=O)n4)cc4ncccc34)n2)CC(C#N)C1 (stereo not drawn) [Example 226, 6-(5-{1-[trans-3-cyano-1-(cyanomethyl)cyclobutyl]-1H-pyrazol-3-yl}-1,6-naphthyridin-7-yl)-3-hydroxypyridine-2-carboxamide]	6.95	5.48	6.03	< 5.00
N#CC[C@]1(n2ccc(-c3nc(-c4ccc(O)c(C(N)=O)n4)cc4ncccc34)n2)C[C@H](C#N)C1 [Example 227, 6-(5-{1-[cis-3-cyano-1-(cyanomethyl)cyclobutyl]-1H-pyrazol-3-yl}-1,6-naphthyridin-7-yl)-3-hydroxypyridine-2-carboxamide]	5.93	< 5.00	5.03	< 5.00
CC(=O)Nc1cc(-c2cc3ncccc3c(-c3ccn(C4(CC#N)CN(S(C)(=O)=O)C4)n3)n2)cnc1C [Example 228, N-[5-(5-{1-[3-(cyanomethyl)-1-(methylsulfonyl)azetidin-3-yl]-1H-pyrazol-3-yl}-1,6-naphthyridin-7-yl)-2-methylpyridin-3-yl]acetamide]	6.15	5.36	5.18	< 5.00
CS(=O)(=O)N1CC(CC#N)(n2ccc(-c3nc(-c4cnc(N)c(N)c4)cc4ncccc34)n2)C1 [Example 229, [3-{3-[7-(5,6-diaminopyridin-3-yl)-1,6-naphthyridin-5-yl]-1H-pyrazol-1-yl}-1-(methylsulfonyl)azetidin-3-yl]acetonitrile]	7.09	5.61	6.00	< 5.00
CS(=O)(=O)N1CC(CC#N)(n2ccc(-c3nc(-c4ccc(N)nc4N)cc4ncccc34)n2)C1 [Example 230, [3-{3-[7-(2,6-diaminopyridin-3-yl)-1,6-naphthyridin-5-yl]-1H-pyrazol-1-yl}-1-(methylsulfonyl)azetidin-3-yl]acetonitrile]	7.48	5.95	6.35	< 5.00
CC(=O)Nc1cc(-c2cc3ncccc3c(-c3ccn(C4(CC#N)CN(S(C)(=O)=O)C4)n3)n2)cnc1NC(C)=O [Example 231, N,N′-[5-(5-{1-[3-(cyanomethyl)-1-(methylsulfonyl)azetidin-3-yl]-1H-pyrazol-3-yl}-1,6-naphthyridin-7-yl)pyridine-2,3-diyl]diacetamide]	6.02	5.24	5.10	< 5.00
N#CCC1(n2ccc(-c3nc(-c4cnc5c(c4)CCC5)cc4ncccc34)n2)CN(CC(F)(F)F)C1 [Example 232]	5.82	< 5.00	5.24	< 5.00
N#CCC1(n2ccc(-c3nc(-c4cncnc4)cc4ncccc34)n2)CN(CC(F)(F)F)C1 [Example 234, [3-{3-[7-(pyrimidin-5-yl)-1,6-naphthyridin-5-yl]-1H-pyrazol-1-yl}-1-(2,2,2-trifluoroethyl)azetidin-3-yl]acetonitrile]	5.58	< 5.00	< 5.00	< 5.00
CS(=O)(=O)N1CC(CC#N)(n2ccc(-c3nc(-c4cncnc4)cc4ncccc34)n2)C1 [Example 235, [1-(methylsulfonyl)-3-{3-[7-(pyrimidin-5-yl)-1,6-naphthyridin-5-yl]-1H-pyrazol-1-yl}azetidin-3-yl]acetonitrile]	5.26	< 5.00	< 5.00	< 5.00
COc1ncc(-c2cc3ncccc3c(-c3ccn(C4(CC#N)CN(CC(F)(F)F)C4)n3)n2)cn1 [Example 236, [3-{3-[7-(2-methoxypyrimidin-5-yl)-1,6-naphthyridin-5-yl]-1H-pyrazol-1-yl}-1-(2,2,2-trifluoroethyl)azetidin-3-yl]acetonitrile]	5.63	< 5.00	< 5.00	< 5.00
COc1ncc(-c2cc3ncccc3c(-c3ccn(C4(CC#N)CN(S(C)(=O)=O)C4)n3)n2)cn1 [Example 237, [3-{3-[7-(2-methoxypyrimidin-5-yl)-1,6-naphthyridin-5-yl]-1H-pyrazol-1-yl}-1-(methylsulfonyl)azetidin-3-yl]acetonitrile]	5.69	< 5.00	< 5.00	< 5.00
CS(=O)(=O)N1CC(CC#N)(n2ccc(-c3nc(-c4cnc(N)nc4)cc4ncccc34)n2)C1 [Example 238, [3-{3-[7-(2-aminopyrimidin-5-yl)-1,6-naphthyridin-5-yl]-1H-pyrazol-1-yl}-1-(methylsulfonyl)azetidin-3-yl]acetonitrile]	5.72	< 5.00	5.05	< 5.00
N#CC[C@]1(n2ccc(-c3nc(-c4cnnc(N)c4)cc4ncccc34)n2)C[C@H](C#N)C1 [Example 239, trans-3-{3-[7-(6-aminopyridazin-4-yl)-1,6-naphthyridin-5-yl]-1H-pyrazol-1-yl}-3-(cyanomethyl)cyclobutanecarbonitrile]	7.02	5.43	5.95	< 5.00
N#CC[C@]1(n2ccc(-c3nc(-c4cnnc(N)c4)cc4ncccc34)n2)C[C@@H](C#N)C1 [Example 240, cis-3-{3-[7-(6-aminopyridazin-4-yl)-1,6-naphthyridin-5-yl]-1H-pyrazol-1-yl}-3-(cyanomethyl)cyclobutanecarbonitrile]	7.32	5.89	6.35	< 5.00
N#CC[C@]1(n2ccc(-c3nc(-c4cc(N)cnn4)cc4ncccc34)n2)C[C@H](C#N)C1 [Example 241, trans-3-{3-[7-(5-aminopyridazin-3-yl)-1,6-naphthyridin-5-yl]-1H-pyrazol-1-yl}-3-(cyanomethyl)cyclobutanecarbonitrile]	5.47	< 5.00	< 5.00	< 5.00
N#CC[C@]1(n2ccc(-c3nc(-c4cc(N)cnn4)cc4ncccc34)n2)C[C@@H](C#N)C1 [Example 242, cis-3-{3-[7-(5-aminopyridazin-3-yl)-1,6-naphthyridin-5-yl]-1H-pyrazol-1-yl}-3-(cyanomethyl)cyclobutanecarbonitrile]	6.30	< 5.00	5.42	< 5.00
N#CC[C@]1(n2ccc(-c3nc(-c4ccnc(C(N)=O)n4)cc4ncccc34)n2)C[C@H](C#N)C1 [Example 243, 4-(5-{1-[trans-3-cyano-1-(cyanomethyl)cyclobutyl]-1H-pyrazol-3-yl}-1,6-naphthyridin-7-yl)pyrimidine-2-carboxamide]	7.32	5.65	6.14	< 5.00
